Data as given in publication PMC6920806, “Synthesis of β-D-galactopyranoside-Presenting Glycoclusters, Investigation of Their Interactions with Pseudomonas aeruginosa Lectin A (PA-IL) and Evaluation of Their Anti-Adhesion Potential” (Biomolecules, 2019).

Tested on: adhesion of P. aeruginosa (ST 1763) to epithelial bronchial cells (CuFi-1)
Experiment: Ex vivo bacterial adherence assay, combination with compound 14
Assay type: cell-based, Pseudomonas aeruginosa
Details: 2 mM of the compound with compound 14 (250 μM); relative to untreated control
Method: Epithelial CuFi-1 cells (an immortalized epithelial cell line derived from cystic fibrosis human lungs, ATCC, Kielpin, Poland) were labelled with PKH67 (Fluorescent Cell Linker Kit, Sigma-Aldrich, St. Louis, MO, USA), a green fluorescent membrane marker, as follows. An aliquot of cell suspension containing 7 × 10^6 cells was washed with PBS buffer and centrifuged (100× g for 5 min). The cell pellet was resuspended in 250 µL of Diluent C (Fluorescent Cell Linker Kit, Sigma-Aldrich, St. Louis, MO, USA). Immediately, an equal volume of 8 µM PKH67 in Diluent C (2 µL of PKH67 in 248 µL of Diluent C) was added to the cell suspension. […]
Epithelial cells CuFi-1 stained with PKH67 were seeded at 8.4 × 10^4 cells/well onto 96-well plates (CellBIND® 96-well Flat Clear Bottom Black Polystyrene Microplates, Corning Incorporated, Corning, NY, USA) and incubated for 42–45 h at 37 °C, 5% CO2 to form a confluent monolayer and regenerate. […] The fluorescence of adhered P. aeruginosa cells (Ex 522 nm, Em 569 nm for PKH26) on epithelial cells (Ex 470 nm, Em 505 for PKH67) was quantified using the spectrofluorometer Tecan Infinite M200 Pro (Tecan Group Ltd., Männedorf, Switzerland). Results were expressed as a relative fluorescence ratio of P. aeruginosa/CuFi-1. […]

SMILES	P. aeruginosa adhesion, mixture with compound 14
OC[C@H]1O[C@@H](OCc2cn(CCn3cc(COCC(COCc4cn(CCn5cc(CO[C@@H]6O[C@H](CO)[C@H](O)[C@H](O)[C@H]6O)nn5)nn4)(COCc4cn(CCn5cc(CO[C@@H]6O[C@H](CO)[C@H](O)[C@H](O)[C@H]6O)nn5)nn4)COCc4cn(CCn5cc(CO[C@@H]6O[C@H](CO)[C@H](O)[C@H](O)[C@H]6O)nn5)nn4)nn3)nn2)[C@H](O)[C@@H](O)[C@H]1O [Compound 13]	~23%
COC(=O)c1cc(OCc2cn(CCn3cc(CO[C@@H]4O[C@H](CO)[C@H](O)[C@H](O)[C@H]4O)nn3)nn2)c(OCc2cn(CCn3cc(CO[C@@H]4O[C@H](CO)[C@H](O)[C@H](O)[C@H]4O)nn3)nn2)c(OCc2cn(CCn3cc(CO[C@@H]4O[C@H](CO)[C@H](O)[C@H](O)[C@H]4O)nn3)nn2)c1 [Compound 10]	approximately 22%
